According to patent publication US9624268B2, “Oral peptide inhibitors of interleukin-23 receptor and their use to treat inflammatory bowel diseases” (Protagonist Therapeutics, Inc., priority 2014, dated 2017):

Test system: Sprague Dawley rats with DSS-induced colitis
Assay: Rat colitis model: 9 days of 3% DSS-containing drinking water
Type: in vivo
Details: 100 mg/kg PO, QD
Method: Rat Colitis Model: 9 Days of 3% DSS-Containing Drinking Water
In this model, colitis was induced in SD rats by 9 days of ad lib exposure to drinking water containing 3% DSS. The disease activity index (DAI) score and ratio of colon weight:colon length were compared between three study groups (n=6 rats/group): vehicle, 3% DSS, and 3% DSS with positive control (sulfasalazine administered at 100 mg/kg PO, QD).
Acute colitis was induced by feeding female Sprague Dawley rats with 3% (wt/vol) DSS dissolved in drinking water. […] To quantify colitis with clinical activity, disease activity index (DAI) was determined daily for each animal as an average of three parameters: body weight change (scale 0-3), stool consistency (scale 0-3) and hemoccult blood (scale 0-3), as shown in Table 15. At necropsy, the entire colon was removed from the cecum to the rectum. The colon was measured for length, flushed with PBS to remove feces, weighed, and opened longitudinally to determine macroscopic score.

## O=C(O)c1cc(/N=N/c2ccc(S(=O)(=O)Nc3ccccn3)cc2)ccc1O [sulfasalazine]
  terminal ratio of colon weight:colon length, difference with and without treatment: significant
From Day 5
  disease activity index (DAI) score compared to DSS alone: attenuated the disease score
